{
  "source": "ChEMBL document CHEMBL2057112",
  "about": "“Enamino-oxindole HIV protease inhibitors” (Bioorg Med Chem Lett, 2012)",
  "data": [
    {"test_system": "Human immunodeficiency virus 1", "assay": "Antiviral activity against Human immunodeficiency virus 1 HXB2 expressing protease M9 mutant infected in human MT4 cells after 5 days by MTT assay", "assay_type": "functional, organism-based", "conditions": "Human immunodeficiency virus 1, HXB2, MT4, 120 h", "units": {"IC50": "nM"}, "values": [
      {"smiles": "CC(C)CN(C[C@@H](O)[C@H](Cc1ccccc1)NC(=O)O[C@H]1CO[C@H]2OCC[C@H]21)S(=O)(=O)c1ccc2c(c1)CC(=O)N2", "IC50": 110},
      {"smiles": "CC(C)CN(C[C@@H](O)[C@H](Cc1ccccc1)NC(=O)O[C@H]1CO[C@H]2OCC[C@H]21)S(=O)(=O)c1ccc2c(c1)C(=CNc1ccccc1)C(=O)N2", "IC50": 100},
      {"smiles": "CC(C)CN(C[C@@H](O)[C@H](Cc1ccccc1)NC(=O)O[C@H]1CO[C@H]2OCC[C@H]21)S(=O)(=O)c1ccc2c(c1)C(=CNC(C)(C)C)C(=O)N2", "note": "(mixture of isomers)", "IC50": 25},
      {"smiles": "CC(C)CN(C[C@@H](O)[C@H](Cc1ccccc1)NC(=O)O[C@H]1CO[C@H]2OCC[C@H]21)S(=O)(=O)c1ccc2c(c1)C(=CN(C)C)C(=O)N2", "note": "(mixture of isomers)", "IC50": 65},
      {"smiles": "CC(C)CN(C[C@@H](O)[C@H](Cc1ccccc1)NC(=O)O[C@H]1CO[C@H]2OCC[C@H]21)S(=O)(=O)c1ccc2c(c1)C(=CN)C(=O)N2", "note": "(mixture of isomers)", "IC50": 200}
    ]},
    {"test_system": "not listed separately", "assay": "Inhibition of wild type Human immunodeficiency virus protease expressed in Escherichia coli using ArgGlu(EDANS)SerGlnAsnTyrProIleValGlnLys(DABCYL)Arg as substrate preincubated with compound for 0.5 to 1 min measured by fluorometric analysis at pH 6.5", "conditions": "not given", "units": {"Ki": "nM"}, "values": [
      {"smiles": "CC(C)CN(C[C@@H](O)[C@H](Cc1ccccc1)NC(=O)O[C@H]1CO[C@H]2OCC[C@H]21)S(=O)(=O)c1ccc2c(c1)CC(=O)N2", "Ki": "< 0.1"},
      {"smiles": "CC(C)CN(C[C@@H](O)[C@H](Cc1ccccc1)NC(=O)O[C@H]1CO[C@H]2OCC[C@H]21)S(=O)(=O)c1ccc2c(c1)C(=CNc1ccccc1)C(=O)N2", "Ki": "< 0.1"},
      {"smiles": "CC(C)CN(C[C@@H](O)[C@H](Cc1ccccc1)NC(=O)O[C@H]1CO[C@H]2OCC[C@H]21)S(=O)(=O)c1ccc2c(c1)C(=CNC(C)(C)C)C(=O)N2", "note": "(mixture of isomers)", "Ki": "< 0.1"},
      {"smiles": "CC(C)CN(C[C@@H](O)[C@H](Cc1ccccc1)NC(=O)O[C@H]1CO[C@H]2OCC[C@H]21)S(=O)(=O)c1ccc2c(c1)C(=CN(C)C)C(=O)N2", "note": "(mixture of isomers)", "Ki": "< 0.1"},
      {"smiles": "CC(C)CN(C[C@@H](O)[C@H](Cc1ccccc1)NC(=O)O[C@H]1CO[C@H]2OCC[C@H]21)S(=O)(=O)c1ccc2c(c1)C(=CN)C(=O)N2", "note": "(mixture of isomers)", "Ki": "< 0.1"}
    ]},
    {"test_system": "Human immunodeficiency virus 1", "assay": "Antiviral activity against Human immunodeficiency virus 1 HXB2 expressing protease M8 mutant infected in human MT4 cells after 5 days by MTT assay", "assay_type": "functional, organism-based", "conditions": "Human immunodeficiency virus 1, HXB2, MT4, 120 h", "units": {"IC50": "nM"}, "values": [
      {"smiles": "CC(C)CN(C[C@@H](O)[C@H](Cc1ccccc1)NC(=O)O[C@H]1CO[C@H]2OCC[C@H]21)S(=O)(=O)c1ccc2c(c1)CC(=O)N2", "IC50": 150},
      {"smiles": "CC(C)CN(C[C@@H](O)[C@H](Cc1ccccc1)NC(=O)O[C@H]1CO[C@H]2OCC[C@H]21)S(=O)(=O)c1ccc2c(c1)C(=CNc1ccccc1)C(=O)N2", "IC50": 110},
      {"smiles": "CC(C)CN(C[C@@H](O)[C@H](Cc1ccccc1)NC(=O)O[C@H]1CO[C@H]2OCC[C@H]21)S(=O)(=O)c1ccc2c(c1)C(=CNC(C)(C)C)C(=O)N2", "note": "(mixture of isomers)", "IC50": 35},
      {"smiles": "CC(C)CN(C[C@@H](O)[C@H](Cc1ccccc1)NC(=O)O[C@H]1CO[C@H]2OCC[C@H]21)S(=O)(=O)c1ccc2c(c1)C(=CN(C)C)C(=O)N2", "note": "(mixture of isomers)", "IC50": 90},
      {"smiles": "CC(C)CN(C[C@@H](O)[C@H](Cc1ccccc1)NC(=O)O[C@H]1CO[C@H]2OCC[C@H]21)S(=O)(=O)c1ccc2c(c1)C(=CN)C(=O)N2", "note": "(mixture of isomers)", "IC50": 200}
    ]},
    {"test_system": "Human immunodeficiency virus 1", "assay": "Antiviral activity against Human immunodeficiency virus 1 HXB2 expressing wild type protease infected in human MT4 cells after 5 days by MTT assay", "assay_type": "functional, organism-based", "conditions": "Human immunodeficiency virus 1, HXB2, MT4, 120 h", "units": {"IC50": "nM"}, "values": [
      {"smiles": "CC(C)CN(C[C@@H](O)[C@H](Cc1ccccc1)NC(=O)O[C@H]1CO[C@H]2OCC[C@H]21)S(=O)(=O)c1ccc2c(c1)CC(=O)N2", "IC50": 82},
      {"smiles": "CC(C)CN(C[C@@H](O)[C@H](Cc1ccccc1)NC(=O)O[C@H]1CO[C@H]2OCC[C@H]21)S(=O)(=O)c1ccc2c(c1)C(=CNc1ccccc1)C(=O)N2", "IC50": 13},
      {"smiles": "CC(C)CN(C[C@@H](O)[C@H](Cc1ccccc1)NC(=O)O[C@H]1CO[C@H]2OCC[C@H]21)S(=O)(=O)c1ccc2c(c1)C(=CNC(C)(C)C)C(=O)N2", "note": "(mixture of isomers)", "IC50": 9},
      {"smiles": "CC(C)CN(C[C@@H](O)[C@H](Cc1ccccc1)NC(=O)O[C@H]1CO[C@H]2OCC[C@H]21)S(=O)(=O)c1ccc2c(c1)C(=CN(C)C)C(=O)N2", "note": "(mixture of isomers)", "IC50": 93},
      {"smiles": "CC(C)CN(C[C@@H](O)[C@H](Cc1ccccc1)NC(=O)O[C@H]1CO[C@H]2OCC[C@H]21)S(=O)(=O)c1ccc2c(c1)C(=CN)C(=O)N2", "note": "(mixture of isomers)", "IC50": 300}
    ]},
    {"test_system": "not listed separately", "assay": "Inhibition of Human immunodeficiency virus protease M8 mutant expressed in Escherichia coli using ArgGlu(EDANS)SerGlnAsnTyrProIleValGlnLys(DABCYL)Arg as substrate preincubated with compound for 0.5 to 1 min measured by fluorometric analysis at pH 6.5", "conditions": "not given", "units": {"Ki": "nM"}, "values": [
      {"smiles": "CC(C)CN(C[C@@H](O)[C@H](Cc1ccccc1)NC(=O)O[C@H]1CO[C@H]2OCC[C@H]21)S(=O)(=O)c1ccc2c(c1)CC(=O)N2", "Ki": 0.53},
      {"smiles": "CC(C)CN(C[C@@H](O)[C@H](Cc1ccccc1)NC(=O)O[C@H]1CO[C@H]2OCC[C@H]21)S(=O)(=O)c1ccc2c(c1)C(=CNc1ccccc1)C(=O)N2", "Ki": 0.46},
      {"smiles": "CC(C)CN(C[C@@H](O)[C@H](Cc1ccccc1)NC(=O)O[C@H]1CO[C@H]2OCC[C@H]21)S(=O)(=O)c1ccc2c(c1)C(=CNC(C)(C)C)C(=O)N2", "note": "(mixture of isomers)", "Ki": 0.35}
    ]},
    {"test_system": "not listed separately", "assay": "Inhibition of Human immunodeficiency virus protease M9 mutant expressed in Escherichia coli using ArgGlu(EDANS)SerGlnAsnTyrProIleValGlnLys(DABCYL)Arg as substrate preincubated with compound for 0.5 to 1 min measured by fluorometric analysis at pH 6.5", "conditions": "not given", "units": {"Ki": "nM"}, "values": [
      {"smiles": "CC(C)CN(C[C@@H](O)[C@H](Cc1ccccc1)NC(=O)O[C@H]1CO[C@H]2OCC[C@H]21)S(=O)(=O)c1ccc2c(c1)CC(=O)N2", "Ki": 0.95},
      {"smiles": "CC(C)CN(C[C@@H](O)[C@H](Cc1ccccc1)NC(=O)O[C@H]1CO[C@H]2OCC[C@H]21)S(=O)(=O)c1ccc2c(c1)C(=CNc1ccccc1)C(=O)N2", "Ki": 1.2},
      {"smiles": "CC(C)CN(C[C@@H](O)[C@H](Cc1ccccc1)NC(=O)O[C@H]1CO[C@H]2OCC[C@H]21)S(=O)(=O)c1ccc2c(c1)C(=CNC(C)(C)C)C(=O)N2", "note": "(mixture of isomers)", "Ki": 0.72},
      {"smiles": "CC(C)CN(C[C@@H](O)[C@H](Cc1ccccc1)NC(=O)O[C@H]1CO[C@H]2OCC[C@H]21)S(=O)(=O)c1ccc2c(c1)C(=CN(C)C)C(=O)N2", "note": "(mixture of isomers)", "Ki": "< 0.3"},
      {"smiles": "CC(C)CN(C[C@@H](O)[C@H](Cc1ccccc1)NC(=O)O[C@H]1CO[C@H]2OCC[C@H]21)S(=O)(=O)c1ccc2c(c1)C(=CN)C(=O)N2", "note": "(mixture of isomers)", "Ki": "< 0.3"}
    ]},
    {"test_system": "Human immunodeficiency virus 1", "assay": "Antiviral activity against Human immunodeficiency virus 1 HXB2 expressing protease M10 mutant infected in human MT4 cells after 5 days by MTT assay", "assay_type": "functional, organism-based", "conditions": "Human immunodeficiency virus 1, HXB2, MT4, 120 h", "units": {"IC50": "nM"}, "values": [
      {"smiles": "CC(C)CN(C[C@@H](O)[C@H](Cc1ccccc1)NC(=O)O[C@H]1CO[C@H]2OCC[C@H]21)S(=O)(=O)c1ccc2c(c1)CC(=O)N2", "IC50": 930},
      {"smiles": "CC(C)CN(C[C@@H](O)[C@H](Cc1ccccc1)NC(=O)O[C@H]1CO[C@H]2OCC[C@H]21)S(=O)(=O)c1ccc2c(c1)C(=CNc1ccccc1)C(=O)N2", "IC50": "> 400"},
      {"smiles": "CC(C)CN(C[C@@H](O)[C@H](Cc1ccccc1)NC(=O)O[C@H]1CO[C@H]2OCC[C@H]21)S(=O)(=O)c1ccc2c(c1)C(=CNC(C)(C)C)C(=O)N2", "note": "(mixture of isomers)", "IC50": 200},
      {"smiles": "CC(C)CN(C[C@@H](O)[C@H](Cc1ccccc1)NC(=O)O[C@H]1CO[C@H]2OCC[C@H]21)S(=O)(=O)c1ccc2c(c1)C(=CN(C)C)C(=O)N2", "note": "(mixture of isomers)", "IC50": 70},
      {"smiles": "CC(C)CN(C[C@@H](O)[C@H](Cc1ccccc1)NC(=O)O[C@H]1CO[C@H]2OCC[C@H]21)S(=O)(=O)c1ccc2c(c1)C(=CN)C(=O)N2", "note": "(mixture of isomers)", "IC50": 180}
    ]},
    {"test_system": "not listed separately", "assay": "Inhibition of Human immunodeficiency virus protease M10 mutant expressed in Escherichia coli using ArgGlu(EDANS)SerGlnAsnTyrProIleValGlnLys(DABCYL)Arg as substrate preincubated with compound for 0.5 to 1 min measured by fluorometric analysis at pH 6.5", "conditions": "not given", "units": {"Ki": "nM"}, "values": [
      {"smiles": "CC(C)CN(C[C@@H](O)[C@H](Cc1ccccc1)NC(=O)O[C@H]1CO[C@H]2OCC[C@H]21)S(=O)(=O)c1ccc2c(c1)CC(=O)N2", "Ki": 14},
      {"smiles": "CC(C)CN(C[C@@H](O)[C@H](Cc1ccccc1)NC(=O)O[C@H]1CO[C@H]2OCC[C@H]21)S(=O)(=O)c1ccc2c(c1)C(=CNc1ccccc1)C(=O)N2", "Ki": 13},
      {"smiles": "CC(C)CN(C[C@@H](O)[C@H](Cc1ccccc1)NC(=O)O[C@H]1CO[C@H]2OCC[C@H]21)S(=O)(=O)c1ccc2c(c1)C(=CNC(C)(C)C)C(=O)N2", "note": "(mixture of isomers)", "Ki": 14},
      {"smiles": "CC(C)CN(C[C@@H](O)[C@H](Cc1ccccc1)NC(=O)O[C@H]1CO[C@H]2OCC[C@H]21)S(=O)(=O)c1ccc2c(c1)C(=CN(C)C)C(=O)N2", "note": "(mixture of isomers)", "Ki": "< 1"},
      {"smiles": "CC(C)CN(C[C@@H](O)[C@H](Cc1ccccc1)NC(=O)O[C@H]1CO[C@H]2OCC[C@H]21)S(=O)(=O)c1ccc2c(c1)C(=CN)C(=O)N2", "note": "(mixture of isomers)", "Ki": 3}
    ]}
  ]
}
